Reference: ChEMBL document CHEMBL4177673, “Imidazo[1,2-a]pyridin-6-yl-benzamide analogs as potent RAF inhibitors” (Bioorg Med Chem Lett, 2017)
≈ marks a conversion by molar mass, not a printed value.

Experiments:
[1] = target: T1, Serine/threonine-protein kinase B-raf (Homo sapiens, UniProt P15056, V600E); assay: Inhibition of recombinant C-terminal his6-tagged B-Raf (437 to 765 residues) V600E mutant (unknown origin) catalytic domain expressed in baculovirus infected Sf21 insect cells using biotinylated Mek substrate preincubated for 60 mins measured after 3 hrs by amplified luminescence proximity homogeneous assay
Homo sapiens [2] = species: Homo sapiens; assay: Selectivity ratio of IC50 for P38 (unknown origin) to IC50 for recombinant C-terminal his6-tagged B-Raf (437 to 765 residues) V600E mutant (unknown origin) expressed in baculovirus infected Sf21 insect cells
MAP kinase p38 = MAP kinase p38 (Homo sapiens, UniProt O15264+Q15759+Q16539+P53778); assay: Inhibition of P38 (unknown origin); type: protein assay
A-375 = assay: Antiproliferative activity against human A375 cells; type: functional, cell-based
[3] = target: T1, Serine/threonine-protein kinase B-raf; assay: Inhibition of B-Raf V600E mutant in human A375 cells assessed as reduction in ERK phosphorylation; type: cell-based
Homo sapiens [4] = species: Homo sapiens; assay: Selectivity ratio of IC50 for VEGFR2 (unknown origin) to IC50 for recombinant C-terminal his6-tagged B-Raf (437 to 765 residues) V600E mutant (unknown origin) expressed in baculovirus infected Sf21 insect cells
[5] = target: Vascular endothelial growth factor receptor 2 (Homo sapiens, UniProt P35968); assay: Inhibition of VEGFR2 (unknown origin)
[6] = target: Tyrosine-protein kinase Lyn (Homo sapiens, UniProt P07948); assay: Inhibition of Lyn (unknown origin)
Ephrin type-A receptor 4 = Ephrin type-A receptor 4 (Homo sapiens, UniProt P54764); assay: Inhibition of EphA4 (unknown origin)
[7] = Clearance in mouse at 20 mg/kg, po administered as single dose; type: ADME, organism-based; details: in vivo
[8] = target: Platelet-derived growth factor receptor alpha (Homo sapiens, UniProt P16234); assay: Inhibition of PDGFRalpha (unknown origin)
[9] = Oral bioavailability in mouse at 20 mg/kg administered as single dose; type: ADME, organism-based; details: in vivo
[10] = Solubility of the compound in PBS at pH 7; type: physicochemical
[11] = target: Mast/stem cell growth factor receptor Kit (Homo sapiens, UniProt P10721); assay: Inhibition of Kit (unknown origin)
Mus musculus = assay: Volume of distribution in mouse at 20 mg/kg, po administered as single dose; type: ADME, organism-based; details: in vivo
Ephrin type-B receptor 4 = target: T2, Ephrin type-B receptor 4 (Homo sapiens, UniProt P54760); assay: Inhibition of EphB4 (unknown origin)
T2 sequence (P54760 whole entry): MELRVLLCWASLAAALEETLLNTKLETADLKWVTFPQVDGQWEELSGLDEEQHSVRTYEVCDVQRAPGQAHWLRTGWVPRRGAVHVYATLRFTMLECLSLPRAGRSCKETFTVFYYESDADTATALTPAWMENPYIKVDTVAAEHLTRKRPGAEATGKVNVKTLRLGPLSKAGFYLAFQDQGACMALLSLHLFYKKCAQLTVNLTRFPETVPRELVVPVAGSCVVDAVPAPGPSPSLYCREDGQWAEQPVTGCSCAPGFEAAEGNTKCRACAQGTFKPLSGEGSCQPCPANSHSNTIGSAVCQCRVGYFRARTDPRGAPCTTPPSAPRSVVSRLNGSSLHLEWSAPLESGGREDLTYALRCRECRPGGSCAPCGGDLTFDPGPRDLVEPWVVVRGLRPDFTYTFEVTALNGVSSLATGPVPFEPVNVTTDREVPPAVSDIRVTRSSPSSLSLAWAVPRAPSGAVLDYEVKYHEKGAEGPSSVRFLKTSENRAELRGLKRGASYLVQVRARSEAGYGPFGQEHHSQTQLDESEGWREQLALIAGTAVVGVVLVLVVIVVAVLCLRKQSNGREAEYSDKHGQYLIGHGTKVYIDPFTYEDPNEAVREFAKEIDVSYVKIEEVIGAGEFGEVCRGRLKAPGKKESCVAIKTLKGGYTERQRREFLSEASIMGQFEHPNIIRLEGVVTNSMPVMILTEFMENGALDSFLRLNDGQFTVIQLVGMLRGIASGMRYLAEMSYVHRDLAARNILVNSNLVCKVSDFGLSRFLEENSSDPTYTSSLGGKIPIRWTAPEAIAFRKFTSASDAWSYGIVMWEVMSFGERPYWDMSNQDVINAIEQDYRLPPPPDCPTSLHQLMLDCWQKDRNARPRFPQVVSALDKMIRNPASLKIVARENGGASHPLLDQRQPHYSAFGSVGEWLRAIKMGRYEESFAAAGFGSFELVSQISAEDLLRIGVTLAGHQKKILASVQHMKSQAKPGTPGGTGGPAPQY

[12] = Half life in mouse at 20 mg/kg, po administered as single dose; type: ADME, organism-based; details: in vivo

T1 sequence (P15056 2-766 V600E limits assumed): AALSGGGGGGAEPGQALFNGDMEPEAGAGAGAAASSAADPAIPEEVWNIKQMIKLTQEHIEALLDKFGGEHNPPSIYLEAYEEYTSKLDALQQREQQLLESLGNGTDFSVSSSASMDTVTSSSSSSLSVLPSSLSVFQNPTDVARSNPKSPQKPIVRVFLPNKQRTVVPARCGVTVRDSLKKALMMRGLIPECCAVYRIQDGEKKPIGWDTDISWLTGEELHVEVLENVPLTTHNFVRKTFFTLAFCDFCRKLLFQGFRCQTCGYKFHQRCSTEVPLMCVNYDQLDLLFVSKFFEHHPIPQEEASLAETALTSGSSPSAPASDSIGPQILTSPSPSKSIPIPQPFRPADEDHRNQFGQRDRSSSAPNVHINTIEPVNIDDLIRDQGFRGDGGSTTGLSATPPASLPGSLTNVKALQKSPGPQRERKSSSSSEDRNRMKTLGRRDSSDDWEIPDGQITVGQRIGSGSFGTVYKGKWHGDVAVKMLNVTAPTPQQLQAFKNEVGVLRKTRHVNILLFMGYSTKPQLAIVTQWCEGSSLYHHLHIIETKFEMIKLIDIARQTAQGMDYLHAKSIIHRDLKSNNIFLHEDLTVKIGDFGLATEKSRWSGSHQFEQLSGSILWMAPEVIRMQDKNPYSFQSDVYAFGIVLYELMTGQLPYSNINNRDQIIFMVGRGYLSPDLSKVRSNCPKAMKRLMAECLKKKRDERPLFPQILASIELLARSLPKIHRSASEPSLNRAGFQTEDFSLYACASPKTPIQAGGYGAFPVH
Sequence of Vascular endothelial growth factor receptor 2 (P35968 whole entry): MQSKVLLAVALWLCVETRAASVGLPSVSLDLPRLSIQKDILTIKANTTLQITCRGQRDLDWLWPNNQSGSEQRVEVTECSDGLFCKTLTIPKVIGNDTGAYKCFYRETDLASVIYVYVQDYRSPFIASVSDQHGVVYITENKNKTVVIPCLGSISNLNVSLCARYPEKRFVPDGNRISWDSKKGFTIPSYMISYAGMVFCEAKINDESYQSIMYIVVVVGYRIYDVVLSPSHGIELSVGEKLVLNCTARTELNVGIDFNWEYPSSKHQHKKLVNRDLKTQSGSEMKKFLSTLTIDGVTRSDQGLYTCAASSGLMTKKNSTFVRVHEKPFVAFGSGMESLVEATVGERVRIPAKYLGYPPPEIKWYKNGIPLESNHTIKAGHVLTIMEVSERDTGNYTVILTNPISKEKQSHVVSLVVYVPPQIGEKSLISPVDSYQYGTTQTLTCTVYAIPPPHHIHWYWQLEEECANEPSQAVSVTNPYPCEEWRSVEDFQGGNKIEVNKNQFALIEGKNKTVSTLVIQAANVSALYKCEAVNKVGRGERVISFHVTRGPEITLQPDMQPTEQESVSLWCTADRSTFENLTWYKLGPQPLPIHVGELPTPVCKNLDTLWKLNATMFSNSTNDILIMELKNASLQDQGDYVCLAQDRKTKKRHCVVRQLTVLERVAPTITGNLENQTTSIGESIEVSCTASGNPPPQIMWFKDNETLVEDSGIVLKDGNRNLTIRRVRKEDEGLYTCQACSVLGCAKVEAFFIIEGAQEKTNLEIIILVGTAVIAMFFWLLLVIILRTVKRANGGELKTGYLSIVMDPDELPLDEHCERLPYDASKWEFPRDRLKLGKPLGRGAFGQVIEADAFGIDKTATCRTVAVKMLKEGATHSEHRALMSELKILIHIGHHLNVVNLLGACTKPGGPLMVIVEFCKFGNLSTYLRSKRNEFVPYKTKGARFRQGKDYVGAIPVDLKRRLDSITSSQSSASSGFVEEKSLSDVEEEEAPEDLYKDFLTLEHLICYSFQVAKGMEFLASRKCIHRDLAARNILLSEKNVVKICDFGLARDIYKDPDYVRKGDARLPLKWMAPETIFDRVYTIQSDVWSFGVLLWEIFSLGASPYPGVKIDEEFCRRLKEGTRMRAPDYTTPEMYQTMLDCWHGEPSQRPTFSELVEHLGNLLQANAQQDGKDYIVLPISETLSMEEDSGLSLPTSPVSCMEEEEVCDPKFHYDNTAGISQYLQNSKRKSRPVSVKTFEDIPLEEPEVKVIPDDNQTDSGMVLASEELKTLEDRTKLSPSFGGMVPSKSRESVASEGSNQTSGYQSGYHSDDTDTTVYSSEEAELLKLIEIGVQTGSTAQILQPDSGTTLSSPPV
Sequence of Platelet-derived growth factor receptor alpha (P16234 whole entry): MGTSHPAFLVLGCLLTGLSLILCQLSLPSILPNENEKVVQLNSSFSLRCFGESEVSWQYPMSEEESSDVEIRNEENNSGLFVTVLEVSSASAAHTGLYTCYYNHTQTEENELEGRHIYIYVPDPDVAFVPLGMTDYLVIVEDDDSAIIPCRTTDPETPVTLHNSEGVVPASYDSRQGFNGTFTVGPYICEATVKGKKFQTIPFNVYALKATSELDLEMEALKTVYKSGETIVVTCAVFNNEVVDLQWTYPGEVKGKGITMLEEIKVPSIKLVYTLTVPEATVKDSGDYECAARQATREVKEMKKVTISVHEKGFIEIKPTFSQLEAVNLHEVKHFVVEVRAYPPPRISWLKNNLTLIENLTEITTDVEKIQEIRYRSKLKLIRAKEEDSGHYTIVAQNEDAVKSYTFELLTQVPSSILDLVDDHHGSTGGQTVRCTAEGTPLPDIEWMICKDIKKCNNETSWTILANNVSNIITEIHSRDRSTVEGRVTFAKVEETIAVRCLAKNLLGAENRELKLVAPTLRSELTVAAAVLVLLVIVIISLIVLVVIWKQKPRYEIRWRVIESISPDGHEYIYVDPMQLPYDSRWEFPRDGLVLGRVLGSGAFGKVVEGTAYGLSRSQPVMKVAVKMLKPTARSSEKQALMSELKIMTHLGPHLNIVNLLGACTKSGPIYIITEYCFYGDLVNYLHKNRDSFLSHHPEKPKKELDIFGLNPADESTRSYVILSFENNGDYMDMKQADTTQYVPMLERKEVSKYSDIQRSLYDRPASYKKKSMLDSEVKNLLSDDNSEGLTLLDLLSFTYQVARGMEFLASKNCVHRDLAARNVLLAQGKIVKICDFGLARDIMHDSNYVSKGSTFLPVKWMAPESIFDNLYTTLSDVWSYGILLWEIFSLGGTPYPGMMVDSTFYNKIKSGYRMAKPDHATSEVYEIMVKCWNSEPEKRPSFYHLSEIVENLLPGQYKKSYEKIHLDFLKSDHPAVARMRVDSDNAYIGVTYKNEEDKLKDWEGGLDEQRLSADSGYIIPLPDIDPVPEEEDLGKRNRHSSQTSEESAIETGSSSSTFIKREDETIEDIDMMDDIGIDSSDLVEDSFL
Sequence of Ephrin type-A receptor 4 (P54764 whole entry): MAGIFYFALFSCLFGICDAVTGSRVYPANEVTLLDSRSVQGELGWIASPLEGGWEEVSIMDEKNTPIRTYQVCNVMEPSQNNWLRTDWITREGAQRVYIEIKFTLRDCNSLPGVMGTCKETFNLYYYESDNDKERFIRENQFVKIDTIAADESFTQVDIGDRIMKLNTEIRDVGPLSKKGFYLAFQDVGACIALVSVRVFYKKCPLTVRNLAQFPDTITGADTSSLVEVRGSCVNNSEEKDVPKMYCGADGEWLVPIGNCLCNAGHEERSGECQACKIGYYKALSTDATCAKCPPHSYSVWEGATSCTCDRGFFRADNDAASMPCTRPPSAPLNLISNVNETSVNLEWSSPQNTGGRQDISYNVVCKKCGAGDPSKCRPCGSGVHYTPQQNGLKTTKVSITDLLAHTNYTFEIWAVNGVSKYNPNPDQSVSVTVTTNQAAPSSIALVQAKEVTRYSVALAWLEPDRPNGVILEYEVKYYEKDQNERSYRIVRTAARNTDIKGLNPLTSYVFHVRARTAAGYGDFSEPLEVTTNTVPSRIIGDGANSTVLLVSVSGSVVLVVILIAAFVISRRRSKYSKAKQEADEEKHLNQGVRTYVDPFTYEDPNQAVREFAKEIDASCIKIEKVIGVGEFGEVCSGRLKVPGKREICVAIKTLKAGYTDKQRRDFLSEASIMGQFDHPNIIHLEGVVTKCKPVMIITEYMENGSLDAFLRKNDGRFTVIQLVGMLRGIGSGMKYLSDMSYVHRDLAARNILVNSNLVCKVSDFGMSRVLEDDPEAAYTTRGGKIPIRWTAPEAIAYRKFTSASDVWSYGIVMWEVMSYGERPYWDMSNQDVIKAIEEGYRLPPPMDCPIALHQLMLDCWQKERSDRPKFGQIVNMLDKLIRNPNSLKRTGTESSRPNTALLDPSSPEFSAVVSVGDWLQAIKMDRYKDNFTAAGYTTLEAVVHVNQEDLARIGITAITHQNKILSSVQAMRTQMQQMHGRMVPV
Sequence of Tyrosine-protein kinase Lyn (P07948 whole entry): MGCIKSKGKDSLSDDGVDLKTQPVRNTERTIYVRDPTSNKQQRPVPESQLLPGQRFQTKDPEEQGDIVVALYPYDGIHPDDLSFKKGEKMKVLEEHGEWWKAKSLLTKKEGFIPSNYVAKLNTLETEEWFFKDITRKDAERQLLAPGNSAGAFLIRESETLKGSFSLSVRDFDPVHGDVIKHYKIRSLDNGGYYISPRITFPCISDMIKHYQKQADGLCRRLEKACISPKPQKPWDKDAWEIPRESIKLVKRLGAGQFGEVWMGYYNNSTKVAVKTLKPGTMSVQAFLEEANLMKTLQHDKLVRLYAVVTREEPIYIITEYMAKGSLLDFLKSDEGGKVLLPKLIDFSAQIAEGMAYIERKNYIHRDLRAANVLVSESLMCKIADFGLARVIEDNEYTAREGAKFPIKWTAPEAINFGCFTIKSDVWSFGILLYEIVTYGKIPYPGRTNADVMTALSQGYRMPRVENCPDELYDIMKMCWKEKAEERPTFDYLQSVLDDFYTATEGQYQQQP

| Structure (SMILES) | IC50 [1] [nM] | Ratio IC50 (Homo sapiens [2]) | IC50 (MAP kinase p38) [nM] | EC50 (A-375) [nM] | EC50 [3] [nM] | Ratio IC50 (Homo sapiens [4]) | IC50 [5] [nM] | IC50 [6] [nM] | IC50 (Ephrin type-A receptor 4) [nM] | CL/F [7] [mL/min/kg] | IC50 [8] [nM] | bioavailability [9] [%] | solubility [10] [µM] | IC50 [11] [nM] | Vd (Mus musculus) [L/kg] | IC50 (Ephrin type-B receptor 4) [nM] | half-life [12] [h] |
| --- | --- | --- | --- | --- | --- | --- | --- | --- | --- | --- | --- | --- | --- | --- | --- | --- | --- |
| CC(=O)Nc1cn2cc(-c3cc(NC(=O)c4cccc(C(C)(C)C)c4)ccc3C)ccc2n1 | 0.3 | 7 | 2 | 57 | 25 | 146 | 44 |  |  |  |  |  |  |  |  |  |  |
| CC(=O)Nc1cn2cc(-c3cc(NC(=O)c4cccc(C(F)(F)F)c4)ccc3C)ccc2n1 | 0.2 | 1100 | 220 | 86 | 230 | 1600 | 320 to 670 | 170 | 74 | 18 | 8 | 73 | < 0.4 | 52 | 2.15 | 150 | 2.45 |
| CC(=O)Nc1cn2cc(-c3cc(NC(=O)c4cccc(Cl)c4)ccc3C)ccc2n1 | 0.3 | 10000 | 3100 | 70 | 480 | 9000 | 2700 |  |  |  |  |  |  |  |  |  |  |
| CC(=O)Nc1cn2cc(-c3cc(NC(=O)c4ccccc4)ccc3C)ccc2n1 | 61 | 3 to 20 | 1600 | 100 | 540 | 18 | 11000 |  |  |  |  |  |  |  |  |  |  |
| CC(=O)Nc1cn2cc(-c3cc(NC(=O)c4cc(C(F)(F)F)ccn4)ccc3C)ccc2n1 | 0.9 | 700 | 660 | 280 | 770 | 2000 | 2000 |  |  |  |  |  |  |  |  |  |  |
| CC(=O)Nc1cn2cc(-c3cc(NC(=O)c4ccc(CN5CCN(C)CC5)c(C(F)(F)F)c4)ccc3C)ccc2n1 | 5 | < 2 | < 11 | 430 | 130 | 20 | 110 |  |  |  |  |  | 4.6 (≈ 2.6 µg/mL) |  |  |  |  |
| CC(=O)Nc1cn2cc(-c3cc(NC(=O)c4cccc(C(F)(F)F)n4)ccc3C)ccc2n1 | 6 | > 4000 | > 25000 | 130 | > 10000 |  |  |  |  |  |  |  |  |  |  |  |  |
| CC(=O)Nc1cn2cc(-c3cc(NC(=O)c4cc(N5CCN(C)C[C@@H]5C)cc(C(F)(F)F)c4)ccc3C)ccc2n1 | 3 | 0.7 | 2 | 340 | 240 |  |  |  |  |  |  |  | 122 (≈ 68.9 µg/mL) |  |  |  |  |
